Measured values published in EP2860184A1, “Dihydrogenphosphate salt of Tenofovir disoproxil” (Zentiva, k.s., priority 2013, dated 2015).
Counter-ions that a name gives are not always drawn.

Columns and labels:
[1] = Chemical stability stress test (HPLC purity before and after); format: physicochemical; conditions: for Starting HPLC purity (%): before the stress test; for HPLC purity (%) after the stress test: stress conditions: 80°C for 46 hours, 2760 min
Method: Physico-chemical properties (stability and solubility) of Tenofovir disoproxil dihydrogenphosphate were compared with other known salts (Tenofovir disoproxil fumarate, citrate, succinate, L-tartrate, D-tartrate, maleate) prepared according to published procedures. Table 2: Chemical stability of Tenofovir disoproxil and its salts (stress conditions: 80°C for 46 hours)
Column: Zorbax Eclipse XDB C18 RRHD, 100 x 3.0 mm (I.D.) x 1.8 um (Agilent), Run Time: 11.5 min., Injection Volume: 2 µl, Mobile Phase: MFA: 10mM K2HPO4 pH=7,0; MFB: ACN; MFA: 90-40-40-90; t: 0-7-9-9,5; F: 0,5 ml/min; 35°C

[2] = Apparent solubility and dissolution rate of the salts (Figure 3); format: physicochemical; conditions: compared with other salts, including Tenofovir disoproxil fumarate
From the text: The active substance solubility is important for bioavailability of the drug.
• Figure 1: DSC of Tenofovir disoproxil dihydrogenphosphate • Figure 2: 1H NMR of Tenofovir disoproxil dihydrogenphosphate • Figure 3: The apparent solubility and dissolution rate of Tenofovir disoproxil salts • Figure 4: Typical HPLC chromatogram of Tenofovir disoproxil dihydrogenphosphate prepared from Tenofovir disoproxil base • Figure 5: SEM images of Tenofovir disoproxil dihydrogenphosphate prepared from Tenofovir disoproxil • Figure 6: Typical HPLC chromatogram of Tenofovir disoproxil dihydrogenphosphate prepared from Tenofovir disoproxil fumarate • Figure 7: SEM images of Tenofovir disoproxil dihydrogenphosphate prepared from Tenofovir disoproxil fumarate

[3] = API solid form change during drug product manufacture (wet granulation); format: physicochemical
From the text: Moreover, we observed partial the conversion (about 30 %) of Tenofovir disoproxil fumarate (Formula II) in Tenofovir disoproxil hemifumarate (Formula III) during our formulation trials using wet granulation process.
Diffraction patterns were obtained with laboratory X'PERT PRO MPD PANalytical diffractometer, radiation used CuKα (λ = 1.542/Å). Generator settings: excitation voltage 45 kV, anodic current 40 mA. Scan description: scan type - gonio, measurement range 2 - 40º 2θ, step size 0.01º 2θ, step time: 0.5 s. Samples were measured as received on Si plate (zero background holder). Incident beam optics: programmable divergence slits (irradiated length 10 mm), 10 mm mask, 1/4º anti-scatter fixed slit, 0.02 rad Soller slits. Diffracted beam optics: X'Celerator detector, scanning mode, active length 2.122º, 0.02 rad Soller slits, anti-scatter slit 5.0 mm, Ni filter.
Tenofovir disoproxil dihydrogenphosphate (300 g), lactose monohydrate (206 g), microcrystalline cellulose (Avicel pH 101; 50 g), croscarmellose sodium (30 g), polyvinylpyrolidone K-25 (20 g) and magnesium stearate (10 g) were sieved. The mixture was loaded to high shear granulator. Purified water (150 ml) was sprayed on the blend in short time intervals and the mixture was kneaded to granules. The wet granules were dried in an oven at 60°C. The dried granules were milled and sieved. […]

[4] = in the presence of increased humidity and/or temperature; cited from earlier work

Row | SMILES | Starting HPLC purity (%) [1] [%] | HPLC purity (%) after the stress test [1] [%] | Chemical stability compared with other salts ([1]; compared with fumarate, citrate, succinate, L-tartrate, D-tartrate, maleate, 80°C for 46 hours) | Solubility [2] | changes in API solid form ([3]; manufacturing of a drug product) | conversion in Tenofovir disoproxil hemifumarate ([3]; formulation trials using wet granulation process) | solid form conversion [4]
1 | CC(C)OC(=O)OCOP(=O)(CO[C@H](C)Cn1cnc2c(N)ncnc21)OCOC(=O)OC(C)C [Tenofovir disoproxil (free base), 9-[-2-(R)-[[bis[[(isopropoxycarbonyl)oxy]methoxy]phosphinoyl]methoxy]propyl] adenine] | 95.66 | 6.13 | – | – | – | – | –
2 | CC(C)OC(=O)OCOP(=O)(CO[C@H](C)Cn1cnc2c(N)ncnc21)OCOC(=O)OC(C)C [Tenofovir disoproxil D-tartrate] | 99.66 | 25.51 | – | – | – | – | –
3 | CC(C)OC(=O)OCOP(=O)(CO[C@H](C)Cn1cnc2c(N)ncnc21)OCOC(=O)OC(C)C [Tenofovir disoproxil L-tartrate] | 98.10 | 21.12 | – | – | – | – | –
4 | CC(C)OC(=O)OCOP(=O)(CO[C@H](C)Cn1cnc2c(N)ncnc21)OCOC(=O)OC(C)C [Tenofovir disoproxil dihydrogenphosphate] | 99.66 | 97.69 | the most stable salt of Tenofovir disoproxil | superior to other salts | no changes in API solid form | – | –
5 | CC(C)OC(=O)OCOP(=O)(CO[C@H](C)Cn1cnc2c(N)ncnc21)OCOC(=O)OC(C)C [Tenofovir disoproxil fumarate] | 99.81 | 4.08 | – | – | – | about 30% | converts into Tenofovir disoproxil hemifumarate
6 | CC(C)OC(=O)OCOP(=O)(CO[C@H](C)Cn1cnc2c(N)ncnc21)OCOC(=O)OC(C)C [Tenofovir disoproxil succinate] | 99.04 | 54.16 | – | – | – | – | –
